Measured values as given in patent US20110177156A1, “Sterol-Modified Amphiphilic Lipids” (priority 2007, published 2011).
Like-named read-outs stand apart in the source and are kept apart here.

Columns and labels:
[1] = Differential scanning calorimetry of SMLs and SML/diacyl lipid mixtures; assay type: physicochemical
Text: Specific SMLs were used as the model compounds to study the properties of the SML compounds. Phase behavior is one of the most important properties of lipid bilayers and is associated with various biological functions of cell membranes. Addition of free cholesterol to the phospholipid bilayer will change the phase behavior of the bilayer due to the mixing of free cholesterol with the glycerolipids and sphingolipids as well as the effect the isoprenol tail of free cholesterol exerts on the acyl chain packing in the bilayer. Using differential scanning calorimetry it was shown that the SMLs exert a similar effect as free cholesterol on acyl chain packing in bilayers composed of synthetic lipids. […] The equivalent sterol molar percentage in the mixture of m-SML and diacyl lipid is calculated according to the method of conventional lipid mixture with the following formula: Sterol %=[…])×100, wherein: For example, a pure m-SML has one sterol and one acyl chain, thus the equivalent free sterol percentage is 1/1.5×100=67. […]

[2] = SML:PC:AmB=2:2:1 (mole) liposomes, stored at 4° C.
Description: First, the chloroform solution of SML/diacyl PC lipids mixture at given ratio were evaporated, and lipid film was placed under high vacuum overnight. Given amount of amphotericin B DMSO solution (20 mg/mL) was then added to the lipid film followed by the addition of pH 7.4 PBS. The mixture was sonicated under argon at 60° C. for 1 hour. The mixture was then dialyzed against pH 7.4 PBS. The yellow solution obtained was sterilized by filtering through 220 nm membrane. Products were stored at 4° C. for future study.

[3] = tested on: C26 colon carcinoma; assay: Survival of Balb/C mice tumored with C26 colon carcinoma after doxorubicin delivered in liposomes of various compositions; assay type: in vivo; conditions: Dose of Dox 10 mg/kg, s.c. C26 tumors
Description: The effect of these formulations on tumor progression and animal survival were compared against the effect non-encapsulated doxorubicin or Doxil™, a commercial liposome formulation of doxorubicin that is approved by the Food and Drug Administration in the Balb/C mice tumored with C26 colon carcinoma. (FIGS. 8 and 9, Table 3).
Drug loaded liposomes of defined size were prepared by methods well known in the art and described in, for example, (Liposomes: 2nd edition, Oxford University Press, 2003, V. Torchilin and V. Weissig., Ed.). Lipid films were prepared by drying 10 μmoles of lipid mixtures dissolved in chloroform under a reduced pressure in glass tubes using a rotary evaporator at room temperature, followed by an overnight exposure to a high vacuum. Liposomes were prepared by rehydrating the thin lipid film above the transition temperature of the lipid in a sterile 250 mM ammonium sulfate solution in screw-capped glass tubes, followed by sonication in a bath type sonicator for 10 minutes at 60° C. The liposome preparation was then extruded through 0.1 micron polycarbonate membranes. […] Mean vesicle diameters as measured by dynamic light scattering using the multimodal program ranged between 85-140 nm with a monodisperse particle size distribution (Malvern Instruments, UK). […]
All animal experiments were performed in compliance with the NIH guidelines for animal research under a protocol approved by the Committee on Animal Research at the University of California, San Francisco. […] Mice were weighed and tumor sizes were monitored daily during the experimental period. The tumor volume was estimated by measuring three orthogonal diameters (a, b, and c) with calipers; the volume was calculated as (a×b×c)×0.5 cm^3. […] In each experiment the mice were monitored for up to 60 days post-inoculation or until one of the following conditions for euthanasia was met: 1) their body weight dropped below 15% of their initial mass; 2) their tumor was greater than 2.0 cm across in any dimension; 3) they became lethargic or sick and unable to feed; or 4) they were found dead. […]

[4] = tested on: C26 colon carcinoma cells; conditions: MTT, concentration as high as 1 mM
Description: The cytotoxicity of the SML lipids was evaluated with the standard MTT (3-(4,5-dimethylthiazolyl-2)-2,5-diphenyltetrazolium bromide) assay method. Briefly, C26 cells were incubated with lipids of various concentrations for a period of time at 37° C. Then the medium was replaced with the MTT working reagents, and the cells were incubated for another two hours. The reagents were then carefully removed. The converted dye was solubilized in acidic isopropanol. The absorbance of the dye was measured at 570 nm with background subtraction at 650 nm.

[5] = calcein liposomes, 37° C., compared with DMPC liposomes
Description: The fluorescent dye calcein (2.49 g, 4 mmol) was dissolved in Tris-HCl buffer (10 mM, pH 7.5, 6 mL) after the addition of 50% sodium hydroxide (695 μL, 13.2 mmol). This stock solution was then loaded on a Sephadex LH-20 column (2.5 cm×40 cm) and eluted with Tris-HCl buffer (10 mM, pH 7.5). The concentration of pooled fraction of calcein was determined by measuring the absorbance (494 nm) of diluted sample at pH 9. The purified calcein (56 mM) was then encapsulated into the liposomes for the leakage assay. Generally, the dry lipid film (10 μmol) of given formulation was hydrated in 1 mL calcein containing buffer at 60° C. under argon for 15 min with intermittent vortex. […] The pooled liposome fractions were then analyzed to determine the calcein concentration, and diluted to the linear fluorescence range for leakage studies discussed below.
Liposomes used for this study were prepared according to the above mentioned method (Example 11) with high concentration content (56 mM calcein, 10 mM Tris, 711 mM NaCl), extruded through 100 nm membrane, and eluted with the isosmotic buffer (50 mM HEPES, 775 mM NaCl). […] Fluorescence signal at 517 nm (ext.: 494 nm) was read after 5 min equilibration by using a Quantech™ fluorometer (Barnstead/Thermolyne, Dubuque, Iowa). […] The fluorescence of the total calcein was measured and used as 100% signal (F100%). […]

[6] = Leakage of calcein from liposomes in 30% fetal bovine serum at 37° C.
Description: The purified calcein (56 mM) was then encapsulated into the liposomes for the leakage assay. Generally, the dry lipid film (10 μmol) of given formulation was hydrated in 1 mL calcein containing buffer at 60° C. under argon for 15 min with intermittent vortex. Then the sample was extruded through a polycarbonate membrane 11 times at 60° C. followed by passing a Sephadex G-50 column with the corresponding isosmotic eluent. The pooled liposome fractions were then analyzed to determine the calcein concentration, and diluted to the linear fluorescence range for leakage studies discussed below.
Calcein was encapsulated into the liposome by the method described above. Liposomes were extruded through 200 nm membrane and the free calcein was removed by passing the liposomes through the Sephadex G-50 column using HEPES buffer (10 mM HEPES, 140 mM NaCl, pH 7.4) as the isomotic eluent. Conventional liposome formulations containing 40% cholesterol (mole percent) were used as the control in the long term leakage assay. An aliquot of liposome sample (20-50 μL) was diluted by 30% fetal bovine serum to a total volume of 2 mL. Samples were then sealed in the glass tube and incubated at 37° C. Fluorescence intensities of samples were monitored at different time points and the fraction of calcein remaining in the liposome was determined by the similar method of osmotic stress induced leakage. […]

[7] = Cholesterol exchange from donor liposomes to POPC acceptor liposomes at 37° C.; assay type: physicochemical; conditions: for exchange of cholesterol out of donor liposomes: PChcPC/DPPC/DPPG (50/40/10), DChcPC/DPPC/DPPG (25/65/10), POPC acceptor
Description: Unilamellar liposomes were prepared by extrusion method. […] Specifically, the three donor liposomes were formulated at the following molar ratios: 1) […] (50/40/10), 2) […] (25/65/10), 3) Chol/DPPC/DPPG (40/50/10). Neutral 1-palmitoyl-2-oleoyl-sn-glycero-3-phosphocholine (POPC) liposome was used as the acceptor. After extrusion, the diameter of the donor liposomes was around 100 nm, and 140 nm for the acceptor liposome. For the exchange experiments, 1 mL donor liposomes (10 mM) and 1 mL acceptor liposomes (100 mM, 10 fold) were warmed at 37° C. first, then mixed and incubated at 37° C. An aliquot (250 μL) of mixture was sampled at given time point and applied to a small (ca. 1 cm in length) anion exchange column (Q-Sepharose XL). The column was pretreated with 0.1 mL 10 mM POPC before the loading of the exchange sample to reduce the nonspecific binding of the neutral liposome. The column was eluted with 1 mL 10 mM NaCl, 10 mM HEPES pH 7.4 buffer. The eluate was lyophilized and analyzed by the cholesterol assay to quantify the amount of cholesterol exchanged.

[8] = assay type: physicochemical
Description: SML16m was designed to have a large surface area than conventional phospholipids by replacing of the hydrophobic lipid chain with an amphiphilic poly(ethylene glycol) chain. […] Unlike conventional amphiphilic molecules, SML16m solution doesn't foam when agitated, but forms a thin membrane along the glass wall above the solution surface. SML16m can effectively solubilize amphotericin B at molar ratios of 1:1 or higher to obtain a concentration of 5 mg/mL. SML16m can also be formulated with other lipids to achieve small liposomes.

In the case of “1-Cholesterylcarbonoyl-2-palmityl-rac-glycero-3-phosphocholine [SML2b]”, the “equivalent cholesterol at which the phase transition is eliminated completely” value ([1]; SML mixed with diacyl lipid of the same chain length (C-16)) is reported as 30%.

For CCCCCCCCCCCCCCCCOCC(COP(=O)([O-])OCC[N+](C)(C)C)OC(=O)OC1CCC2(C)C(=CCC3C2CCC2(C)C(C(C)CCCC(C)C)CCC32)C1 (racemic) [SML4b, 1-Palmityl-2-cholesterylcarbonoyl-rac-glycero-3-phosphocholine], the “stability of formulation at 4° C.” value [2] was “more than one year”.

For CCCCCCCCCCCCCCOCC(COP(=O)([O-])OCC[N+](C)(C)C)OC(=O)OC1CCC2(C)C(=CCC3C2CCC2(C)C(C(C)CCCC(C)C)CCC32)C1 (racemic) [SML4c, 1-Myristyl-2-cholesterylcarbonoyl-rac-glycero-3-phosphocholine], the “stability of formulation at 4° C.” value [2] was “more than one year”.

In the case of COc1cccc2c1C(=O)c1c(O)c3c(c(O)c1C2=O)C[C@@](O)(C(=O)CO)C[C@@H]3O[C@H]1C[C@H](N)[C@H](O)[C@H](C)O1 [Free Dox, Doxorubicin], the “# of Animals Surviving at Day 60 (n = 5)” value [3] is reported as 0, the “Median Survival Day” value [3] is reported as 26 days and the “# of Animals Surviving at Day 60 (n = 5)” value ([3]; listed as non-encapsulated doxorubicin) is reported as “no animals survived to 60 days”.

For CCCCCCCCCCCCCCCCCCNC(=O)OC(COC(=O)OC1CCC2(C)C(=CCC3C2CCC2(C)C(C(C)CCCC(C)C)CCC32)C1)COP(=O)([O-])OCC[N+](C)(C)C (centres unmarked) [SML1a, 1-Cholesterylcarbonoyl-2-stearylcarbamoyl-sn-glycero-3-phosphocholine], the cytotoxicity [4] was “certain cytotoxicity”.

In the case of CCCCCCCCCCCCCCCCNC(=O)OC(COC(=O)OC1CCC2(C)C(=CCC3C2CCC2(C)C(C(C)CCCC(C)C)CCC32)C1)COP(=O)([O-])OCC[N+](C)(C)C (centres unmarked) [SML1b, 1-Cholesterycarbonoyl-2-palmitylcarbamoyl-sn-glycero-3-phosphocholine], the cytotoxicity [4] is reported as “certain cytotoxicity”.

For CCCCCCCCCCCCCCNC(=O)O[C@H](COC(=O)O[C@H]1CC[C@@]2(C)C(=CC[C@H]3[C@@H]4CC[C@H]([C@H](C)CCCC(C)C)[C@@]4(C)CC[C@@H]32)C1)COP(=O)([O-])OCC[N+](C)(C)C [SML1c, 1-Cholesterylcarbonoyl-2-myristylcarbamoyl-sn-glycero-3-phosphocholine], the “osmotic leakage profile / stability under osmotic gradients” value [5] was “no difference in osmotic induced release”, the “osmotic leakage profile / stability under osmotic gradients” value ([5]; listed as ChcMaPC) was “good stability” and the “leakage profile of calcein from liposomes” value ([6]; 37° C., 4 weeks) was “remained intact”. The “leakage of calcein in 28 days” value ([6]; 28 days) was “less than 1%”.

For CCCCCCCCCCCCCCCCCC(=O)OCC(COP(=O)([O-])OCC[N+](C)(C)C)OC(=O)OC1CCC2(C)C(=CCC3C2CCC2(C)C(C(C)CCCC(C)C)CCC32)C1 (centres unmarked) [SML5a, 1-Stearoyl-2-cholesterylcarbonoyl-sn-glycero-3-phosphocholine], the “stability of formulation at 4° C.” value [2] was “more than one year”.

With CCCCCCCCCCCCCCCC(=O)OCC(COP(=O)([O-])OCC[N+](C)(C)C)OC(=O)OC1CCC2(C)C(=CCC3C2CCC2(C)C(C(C)CCCC(C)C)CCC32)C1 (centres unmarked) [SML5b, 1-Palmitoyl-2-cholesterylcarbonoyl-sn-glycero-3-phosphocholine] the “stability of formulation at 4° C.” value [2] was “more than one year” and the “exchange of cholesterol out of donor liposomes” value [7] was “very little or no detectable exchange of cholesterol”.

For CC(C)CCC[C@@H](C)[C@H]1CC[C@H]2[C@@H]3CC=C4C[C@@H](OC(=O)OC[C@H](COP(=O)([O-])OCC[N+](C)(C)C)OC(=O)O[C@H]5CC[C@@]6(C)C(=CC[C@H]7[C@@H]8CC[C@H]([C@H](C)CCCC(C)C)[C@@]8(C)CC[C@@H]76)C5)CC[C@]4(C)[C@H]3CC[C@]12C [SML6a, 1,2-Dicholesterylcarbonoyl-sn-glycero-3-phosphocholine], the “exchange of cholesterol out of donor liposomes” value [7] was “very little or no detectable exchange of cholesterol” and the “new transition in DSC trace” value ([1]; DChcPC/DPPC mixtures, equivalent free cholesterol 30 mole percent) was “around 20 °C”.

With COCCOCCOCCOCCOCCOCCOCCOCCC(=O)O[C@H](COC(=O)CCC(=O)O[C@H]1CC[C@@]2(C)C(=CC[C@H]3[C@@H]4CC[C@H]([C@H](C)CCCC(C)C)[C@@]4(C)CC[C@@H]32)C1)COP(=O)([O-])OCC[N+](C)(C)C [SML16m, 1-cholesterylhemisuccinoyl-2-(2,5,8,11,14,17,20,23-octaoxahexacosan-26-oyl)-sn-glycero-3-phosphocholine] the “concentration of amphotericin B solubilized” value [8] was 5000 µg/mL and the solubility in water [8] was “dissolves in water easily”.

With CC(C)CCC[C@@H](C)[C@H]1CC[C@H]2[C@@H]3CC=C4C[C@@H](O)CC[C@]4(C)[C@H]3CC[C@]12C [free cholesterol, cholesterol, reference compound] the “half time for cholesterol exchange” value ([7]; free cholesterol in a conventional liposome (Chol/DPPC/DPPG 40/50/10)) was about 2 h.
